# Source: patent publication US4550186A, “Binuclear copper (II) carboxylates formed from amine-carboxyboranes” (Duke University, priority 1983, dated 1985)
# Legend:
# [1] = tested on: Ehrlich ascites carcinoma; assay: Ehrlich ascites carcinoma growth in CF1 male mice; assay type: in vivo, mouse; details: for No. of Animals Survived on Day 10: 6 animals; for Ascrit Packed Cell Vol. / Vol(ml) Ascites Fluid: Day 10; for Percent Inhibition: Ehrlich ascites carcinoma growth
# Procedure: (§1) CF1 male mice (~30 g) were implanted with 2×10^6 Ehrlich ascites tumor cells, intraperitoneally on Day 0. Compound I was suspended by homogenation in 0.05% polysorbate.80-water and administered intraperitoneally at 10 and 20 mg/kg for 9 days to determine its effectiveness for inhibition of tumor growth. Mice were sacrificed on Day 10, and the ascites fluid was collected from the peritoneal cavity. The volume and ascrit (packed cell volume) were determined for each animal and the percent inhibition of tumor growth was calculated. For the metabolic studies, mice were treated on Days 8 and 9 with 10 mg/kg of Compound I, intraperitoneally. The animal was sacrificed on Day 10 and the ascites fluid harvested. The in vitro metabolic studies were performed at 0.25, 0.50 and 1 mmol final concentration of Compound I.
# [2] = tested on: Holtzman male rats; assay: 3H-Cholesterol distribution in rats; assay type: in vivo, rat; details: for Orally administered 3H-Cholesterol: 14 days 10 mg/Kg/Day, Treated
# Procedure: Holtzman male rats (~350 g) were administered the test agent for 14 days orally. On day 13, 10 μCi of ^3 H-cholesterol (40.7 mCi/mmol) was administered intraperitoneally in mice and orally in rats, and feces were collected for the next 24 hr. Twenty-four hours after cholesterol administration, the major organs were excised and samples of blood, chyme and urine were obtained. Homogenates (10%) were prepared of the tissues which were combusted and counted. Some tissue samples were plated on Whatman #1 filter paper, dried and digested for 24 hr in base at 40° C. and counted. Results were expressed as dpm/mg of wet tissue and dpm/per total organ.
# [3] = tested on: CF1 male mice on atherogenic diet; assay: Testing in atherogenic mice; assay type: in vivo, mouse; details: 12 days
# Procedure: CF1 male mice (~25 g) were placed on a commercial diet (the U.S. Biochemical Corporation Basel Atherogenic Test Diet) which contained butterfat (400 g), celufil (cellulose; 60 g), cholesterol (53 g), choline dihydrogen citrate (4 g), salt mixture oil (Wesson; 40 g), sodium cholate (20 g), sucrose (223 g), vitamin free casein (200 g) and total vitamin supplement for 10 days. After the cholesterol and triglyceride levels were assayed and observed to be elevated, the mice were administered test drugs at 10 mg/kg/day intraperitoneally for an additional 12-day period. Serum cholesterol and triglyceride levels were measured after 12 days of administration of the drugs.
# [4] = molecular target: deoxyribonucleic acid polymerase; assay: In vitro deoxyribonucleic acid polymerase activity in isolated nuclei; assay type: biochemical, mouse; details: isolated nuclei from Ehrlich ascites cells, read-out: ID50, Deoxyribonucleic acid polymerase activity
# Procedure: as §1
# In vitro and in vivo nuclear deoxyribonucleic acid polymerase activity was determined on isolated Ehrlich ascites cell nuclei. The incubation was that described by Sawada et al [Can. Res., 34, 3341 (1974)] except that [methyl-^3 H] deoxythymidine triphosphate (82.4 Ci/mmol) was used. The acid insoluble nucleic acid was collected on GF/F filters and counted. Nuclear ribonucleic acid polymerase activities were determined on enzymes isolated from nuclei. […] The acid insoluble ribonucleic acid was collected on nitrocellulose filters and counted.
# [5] = molecular target: thymidylate synthetase (Mus musculus, UniProt P07607); assay: In vivo thymidylate synthetase activity
# Sequence of thymidylate synthetase (P07607 whole entry): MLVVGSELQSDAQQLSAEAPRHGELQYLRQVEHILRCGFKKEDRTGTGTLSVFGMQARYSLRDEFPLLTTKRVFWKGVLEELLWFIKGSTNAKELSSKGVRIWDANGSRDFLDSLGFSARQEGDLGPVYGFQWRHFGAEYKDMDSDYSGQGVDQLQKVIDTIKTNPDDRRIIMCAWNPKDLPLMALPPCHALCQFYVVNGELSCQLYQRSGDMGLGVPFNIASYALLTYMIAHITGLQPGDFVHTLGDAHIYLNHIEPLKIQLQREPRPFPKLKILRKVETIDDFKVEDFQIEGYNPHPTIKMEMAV
# Procedure: as §1, with “The animal was sacrificed on Day 10 and the ascites fluid harvested. The in vitro metabolic studies were performed at 0.25, 0.50 and 1 mmol final concentration of Compound I.” left out
# Carbamyl phosphate synthetase activity was determined using the reaction medium of Kalman et al [Am. […] Citrulline formed from ornithine was measured at 490 nm by the method of Archibald [J. Biol. Chem., 156, 121 (1944)]. […] The ^14 CO2 generated in 15 min was trapped in 1M KOH and counted. Thymidylate synthetase activity was determined using a post-mitochondrial supernatant (9000 g×10 min) and 5 μCi of 5-^3 H-deoxyuridine monophosphate (14 Ci/mmol) according to the method of Kampf et al [ J. Med. Chem., 19, 903 (1976)]. ^14 C-Formate incorporation into purines was determined by the method of Spassova et al [Biochem. Pharmacol., 25, 923 (1976)] using 0.5 μCi of ^14 C-formic acid (52.0 mCi/mmol). […] The Rf value for xanthine monophosphate was scraped and counted. […]
substance,measurement,setting,value
{Cu[(CH3)3 N.BH2 CO2 ]2.(CH3)3 N.BH2 COOH} [Compound I],No. of Animals Survived on Day 10,[1]; 10 mg/kg/day i.p.,5
same,Ascrit Packed Cell Vol.,[1]; 10 mg/kg/day i.p.,18.5
same,Vol(ml) Ascites Fluid,[1]; 10 mg/kg/day i.p.,0.04 mL
same,Percent Inhibition,[1]; 10 mg/kg/day i.p.,99.7%
same,No. of Animals Survived on Day 10,[1]; 20 mg/kg/day i.p.,6
same,Ascrit Packed Cell Vol.,[1]; 20 mg/kg/day i.p.,34.0
same,Vol(ml) Ascites Fluid,[1]; 20 mg/kg/day i.p.,0.32 mL
same,Percent Inhibition,[1]; 20 mg/kg/day i.p.,96.2%
same,Orally administered 3H-Cholesterol,[2]; rat Brain,"15,783 DPM/Total Organ"
same,Orally administered 3H-Cholesterol,[2]; rat Chyme,"218,742 DPM/Total Organ"
same,Orally administered 3H-Cholesterol,[2]; rat Feces,"294,644 DPM/Total Organ"
same,Orally administered 3H-Cholesterol,[2]; rat Heart,"20,060 DPM/Total Organ"
same,Orally administered 3H-Cholesterol,[2]; rat Kidney,565 DPM/Total Organ
same,Orally administered 3H-Cholesterol,[2]; rat Large Intestine,"59,665 DPM/Total Organ"
same,Orally administered 3H-Cholesterol,[2]; rat Liver,"27,695 DPM/Total Organ"
same,Orally administered 3H-Cholesterol,[2]; rat Lung,"17,106 DPM/Total Organ"
same,Orally administered 3H-Cholesterol,[2]; rat Small Intestine,"16,514 DPM/Total Organ"
same,Orally administered 3H-Cholesterol,[2]; rat Spleen,"13,241 DPM/Total Organ"
same,Orally administered 3H-Cholesterol,[2]; rat Stomach,"33,901 DPM/Total Organ"
same,3H-cholesterol reduced (dpm/organ vs control),[2]; rat brain,46%
same,higher content of cholesterol,[2]; rat chyme,113%
same,3H-cholesterol reduced (dpm/organ vs control),[2]; rat heart,18%
same,3H-cholesterol reduced (dpm/organ vs control),[2]; rat kidney,91%
same,higher content of cholesterol,[2]; rat large intestine,27%
same,3H-cholesterol reduced (dpm/organ vs control),[2]; rat liver,42%
same,higher content of cholesterol,[2]; rat small intestine,81%
same,higher content of cholesterol,[2]; rat stomach,198%
same,higher content of cholesterol,[2]; rat urine,336%
same,serum cholesterol level after drug administration,[3]; hyperlipidemic induced mice (354 mg % before),148 mg %
same,serum cholesterol levels reduced,"[3]; hyperlipidemic induced mice, 10 mg/kg/day i.p.",59%
same,serum triglyceride levels lowered,"[3]; hyperlipidemic mice, 10 mg/kg/day i.p.",67%
same,IC50,[4],454 µM
same,Thymidylate synthetase activity suppressed,[5],5%
same,Thymidylate synthetase activity,[5]; 10 mg/kg/day I.P. on Days 8 and 9,102 ± 9 % Control
